{
  "source": "patent US11224619B2",
  "about": "“Formulations and methods for treatment of inflammatory skin diseases” (Zemtsov Enterprises, LLC, priority 2012, dated 2022)",
  "tested_on": "atopic dermatitis / plaque psoriasis",
  "experiment": "Response of individual study subjects to earlier therapy",
  "data": [
    {"compound": "C[C@H]1C[C@H]2[C@@H]3CCC4=CC(=O)C=C[C@]4(C)[C@@]3(F)[C@@H](O)C[C@]2(C)[C@@]1(O)C(=O)CCl", "note": "[clobetasol]", "values": [
      {"measurement": "Response to earlier therapy", "setting": "Subject #2, chronic atopic dermatitis on the neck", "result": "unresponsive"}
    ]},
    {"compound": "CC(=O)OCC(=O)[C@@]12OC(C)(C)O[C@@H]1C[C@H]1[C@@H]3C[C@H](F)C4=CC(=O)C=C[C@]4(C)[C@@]3(F)[C@@H](O)C[C@@]12C", "note": "[fluocinonide]", "values": [
      {"measurement": "Response to earlier therapy", "setting": "Subject #5, persistent psoriatic lesions on the abdomen", "result": "unresponsive"}
    ]},
    {"compound": "etanercept", "values": [
      {"measurement": "Disease control under ongoing therapy", "setting": "Subject #5, chronic severe plaque psoriasis, subcutaneous injections", "result": "reasonable control"}
    ]}
  ]
}
